Source: patent US20250243176A1, “(S)-1-(1-ACRYLOYLPIPERIDIN-3-YL)-2-FLUORO-5,6,7,8,9,10-HEXAHYDROCYCLO HEPTA[B]INDOLE-4-CARBOXAMIDE, AND RELATED CRYSTALLINE FORMS, COMPOSITIONS, AND METHODS THEREOF” (GB005, Inc., priority 2021, published 2025)
Like-named read-outs stand apart in the source and are kept apart here.

What was measured:
[1] = Phase 1 single ascending dose plasma pharmacokinetics; format: in vivo, human; details: for AUC(0-inf) / Cmax / half-life / Tmax: both sexes, human, plasma, fed; for AUC(0-inf) / Cmax: mean; for dose proportionality of exposure (AUCinf): single dose
Description: The study investigates the administration of Compound 1 to healthy human subjects, to evaluate the safety, tolerability and PK of single and multiple-escalating doses. Additional objectives include assessing the effect of formulation on PK, the effect of food on PK, the effect of a CYP3A inhibitor on PK and the effect of Compound 1 on CYP3A activity. PK parameters including AUC, AUC, Cmax, and Tmax are determined. An additional exploratory objective evaluates pharmacodynamics, as the time-course of BTK inhibition. The study is conducted with up to 144 healthy male and female subjects, aged 18-55 years, with a body weight over 48 kg, BMI 18.5-30.0 kg/m^2, with no clinically significant abnormalities.
Part A is a randomized, double-blind, placebo-controlled, single- and -multiple-dose study with staggered dose escalation, administered in the fed state (standard moderate-fat meal). Part A consists of […] (up to 7 single-ascending dose [SAD] cohorts [Cohorts 1-6 & 14], and up to 3 multiple ascending dose [MAD] cohorts [Cohorts 7-9]). Subjects are randomized in a 3:1 ratio per cohort to receive either: Compound 1 Formulation A (N=6 for Cohorts 1-4 and N=9 for Cohorts 5-9 & 14); or placebo (PBO; N=2 for Cohorts 1-4 and N=3 for Cohorts 5-9 & 14).
• Cohorts 1-4: Day 1, all subjects receive a single dose of Formulation A Compound 1 or placebo. • Cohorts 5, 6 & 14: Day −1, all subjects receive placebo (establish baseline ECG assessments). Day 1, subjects receive a single oral dose of Compound 1 or placebo.
(§1) Safety is assessed throughout the study and PK and PD are characterized using serial blood samples collected up to 48 hours post-dose for Compound 1 plasma concentrations, BTK target occupancy (TO) and target engagement (TE). Cerebrospinal fluid (CSF) samples are collected at 2 hours post-dose to characterize the relationship between Compound 1 plasma concentrations and CNS penetrance (CSF/Unbound plasma concentration). Compound 1 PK parameters (e.g., AUClast, AUCinf, Cmax, Tmax, t1/2) are estimated by standard noncompartmental methods.
Results: Preliminary pharmacokinetic results from […] are presented, including […] (7 receiving 5 mg, 8 receiving 15 mg, 8 receiving 45 mg, 8 receiving 5 mg+10 mg placebo, 12 receiving 100 mg and 12 receiving 200 mg: randomized in a 3:1 ratio to receive Compound 1 or placebo) in a fed state (moderate-fat meal). […] Preliminary PK parameters are presented in Table 45 (all pharmacokinetic parameters of Table 45 are reported as Mean (% coefficient of variation), except for Tmax and t/2, which are reported as Median (Min, Max)), and in FIG. 25 presenting the mean (SD) plasma concentration-time profiles of Compound 1.

[2] = Phase 1 CSF penetrance (CSF/unbound plasma concentration); format: in vivo; details: both sexes, human, oral; for Kp at 2 h: CSF / unbound plasma
Description: as §1
Mean Compound 1 CSF:unbound plasma concentration ratios approximated 1 indicating unimpeded access of unbound drug in plasma into the CNS (see, e.g., Table 46, reported as Mean (% coefficient of variation), and FIG. 26 showing CSF to unbound plasma ratio by dose).

[3] = test system: CYP3A; experiment: Phase 1 drug-drug interaction with itraconazole (strong CYP3A inhibitor); format: in vivo, human; details: for AUC(0-inf) / Cmax / T1/2 / Tmax: Cohort 12, 2 mg single dose; for AUC(0-inf) / Cmax: mean; for T1/2 / Tmax: median
Description: Cohort 12 is an open-label, fixed-sequence, multiple-dose DDI study with itraconazole (ITZ). Subjects receive a single oral dose of Compound 1 administered in the fasted state on Day 1. Beginning on Day 3 and continuing through to Day 6, subjects receive itraconazole 200 mg once daily (QD) in a fasted state. On Day 5, subjects receive Compound 1 administered in the fasted state, 1 hour after administration of itraconazole.
Results. Preliminary pharmacokinetic results evaluating the drug-drug interaction effect of a strong CYP3A inhibitor (itraconazole) on Compound 1 PK are presented, including 9 subjects from Cohort 12 receiving single doses of 2 mg Compound 1 under fasting conditions alone or in combination with once daily itraconazole 200 mg. Preliminary PK parameters are presented in Table 49 (all pharmacokinetic parameters of Table 49 are reported as Mean (% coefficient of variation), except for Tmax and t1/2, which are reported as Median (Min, Max)), and in FIG. 29 presenting the mean (SD) plasma concentration-time profiles of Compound 1.

[4] = oral, 5 mg, Cohort 1, 5 mg single dose
[5] = oral, 5 mg, Cohort 4, 5 mg (+10 PBO) single dose
[6] = oral, 15 mg, Cohort 2, 15 mg single dose
[7] = oral, 45 mg, Cohort 3, 45 mg single dose
[8] = oral, 100 mg, Cohort 5, 100 mg single dose
[9] = oral, 200 mg, Cohort 6, 200 mg single dose
[10] = 2 mg Compound 1, itraconazole 200 mg once daily, fasting
[11] = fasted, Day 5 (+ITZ 200 mg once daily)
[12] = single 2 mg dose, fasting, alone or with itraconazole 200 mg once daily

C=CC(=O)N1CCC[C@@H](c2c(F)cc(C(N)=O)c3[nH]c4c(c23)CCCCC4)C1 [Compound 1, (S)-1-(1-acryloylpiperidin-3-yl)-2-fluoro-5,6,7,8,9,10-hexahydrocyclohepta[b]indole-4-carboxamide]
AUC(0-inf) [1, 4]: 62.1 ng·h/mL | Cmax [1, 4]: 22.5 ng/mL | half-life ([1]; oral, 5 mg, Cohort 1, 5 mg single dose, median, read-out: T1/2 (converted)): 2.77 h | Tmax ([1]; oral, 5 mg, Cohort 1, 5 mg single dose, median, read-out: Tmax): 2 h | AUC(0-inf) [1, 5]: 121 ng·h/mL | Cmax [1, 5]: 36 ng/mL | half-life ([1]; oral, 5 mg, Cohort 4, 5 mg (+10 PBO) single dose, median, read-out: T1/2 (converted)): 3.33 h | Tmax ([1]; oral, 5 mg, Cohort 4, 5 mg (+10 PBO) single dose, median, read-out: Tmax): 1.75 h | AUC(0-inf) [1, 6]: 339 ng·h/mL | Cmax [1, 6]: 124 ng/mL | half-life ([1]; oral, 15 mg, Cohort 2, 15 mg single dose, median, read-out: T1/2 (converted)): 3.6 h | Tmax ([1]; oral, 15 mg, Cohort 2, 15 mg single dose, median, read-out: Tmax): 1 h | AUC(0-inf) [1, 7]: 859 ng·h/mL | Cmax [1, 7]: 283 ng/mL | half-life ([1]; oral, 45 mg, Cohort 3, 45 mg single dose, median, read-out: T1/2 (converted)): 3.4 h | Tmax ([1]; oral, 45 mg, Cohort 3, 45 mg single dose, median, read-out: Tmax): 1.5 h | AUC(0-inf) [1, 8]: 2290 ng·h/mL | Cmax [1, 8]: 555 ng/mL | half-life ([1]; oral, 100 mg, Cohort 5, 100 mg single dose, median, read-out: T1/2 (converted)): 4.29 h | Tmax ([1]; oral, 100 mg, Cohort 5, 100 mg single dose, median, read-out: Tmax): 1.5 h | AUC(0-inf) [1, 9]: 4480 ng·h/mL | Cmax [1, 9]: 814 ng/mL | half-life ([1]; oral, 200 mg, Cohort 6, 200 mg single dose, median, read-out: T1/2 (converted)): 4.5 h | Tmax ([1]; oral, 200 mg, Cohort 6, 200 mg single dose, median, read-out: Tmax): 3 h | Tmax ([1]; po, healthy subjects, single oral dose, SAD cohorts, read-out: mean plasma Tmax): 1 to 3 h | half-life ([1]; po, healthy subjects, single oral dose, SAD cohorts, read-out: terminal half-life): 3 to 4 h | dose proportionality of exposure (AUCinf) ([1]; from 5 to 15 mg): greater than dose-proportional | dose proportionality of exposure (AUCinf) ([1]; from 15 to 200 mg): near dose-proportional | Kp at 2 h ([2]; Cohort 2, 15 mg single dose, 2 hr post-dose, mean, read-out: CSF/Unbound Plasma): 0.95 | Kp at 2 h ([2]; Cohort 3, 45 mg single dose, 2 hr post-dose, mean, read-out: CSF/Unbound Plasma): 0.95 | Kp at 2 h ([2]; healthy subjects, CSF samples at 2 hours post-dose, read-out: Mean CSF:unbound plasma concentration ratio): ~1 | concentration at 2 h ([2]; CSF, Cohort 2, 15 mg single dose, mean, read-out: CSF Conc (2 hr)): 0.9 ng/mL | concentration at 2 h ([2]; CSF, Cohort 3, 45 mg single dose, mean, read-out: CSF Conc (2 hr)): 2.07 ng/mL | concentration at 2 h ([2]; plasma (unbound), Cohort 2, 15 mg single dose, mean, read-out: Unbound Plasma Conc @2 hr): 0.83 ng/mL | concentration at 2 h ([2]; plasma (unbound), Cohort 3, 45 mg single dose, mean, read-out: Unbound Plasma Conc @2 hr): 2.33 ng/mL | concentration at 2 h ([2]; plasma, Cohort 2, 15 mg single dose, mean, read-out: Plasma Conc @2 hr): 63.2 ng/mL | concentration at 2 h ([2]; plasma, Cohort 3, 45 mg single dose, mean, read-out: Plasma Conc @2 hr): 159 ng/mL | increase of AUCinf on coadministration of itraconazole [3, 10]: 15% | increase of Cmax on coadministration of itraconazole [3, 10]: 23% | AUC(0-inf) ([3]; fasted, Day 1 (Alone)): 46.7 ng·h/mL | Cmax ([3]; fasted, Day 1 (Alone)): 21.2 ng/mL | T1/2 ([3]; fasted, Day 1 (Alone)): 3.13 h | Tmax ([3]; fasted, Day 1 (Alone)): 1.0 h | AUC(0-inf) [3, 11]: 54.4 ng·h/mL | Cmax [3, 11]: 26.3 ng/mL | T1/2 [3, 11]: 3.14 h | Tmax [3, 11]: 1.5 h | AUC0-inf, % GMR ITZ/Alone ([3]; Cohort 12, 2 mg, fasted): 115% | Cmax, % GMR ITZ/Alone ([3]; Cohort 12, 2 mg, fasted): 123% | effect of a strong CYP3A inhibitor on PK ([3]; coadministration of itraconazole): no clinically significant effect | mean plasma Tmax [3, 12]: 1.0 to 1.5 h | terminal half-life [3, 12]: approximately 3 hours
